# Test results reported in ChEMBL document CHEMBL1201862, “PubChem BioAssay data set” (2004).
# Activity calls are given as the source filed them.
# Tests used:
# H4 = test: Luminescence Cell-Based Dose Response HTS to Identify Activators of 5'UTR Stem-Loop Driven Prion Protein mRNA Translation in H4 Neuroglioblastoma Cells. [Related pubchem assays: 1829 (Project Summary), 1814 (Primary HTS)]; assay type: functional; conditions: Homo sapiens
# [1] = Luminescence Cell-Based Dose Response HTS to Identify Activators of Luciferase Translation or Activity in H4 […] Cells. [Related pubchem assays: 1829 (Project Summary), 1814 (Primary HTS)]; assay type: functional
# [2] = Luminescence Cell-Based Dose Confirmation HTS to Identify Activators of 5'UTR Stem-Loop Driven Alpha-Synuclein mRNA Translation in H4 Neuroglioblastoma Cells. [Related pubchem assays: 1829 (Project Summary), 1814 (Primary HTS)]; assay type: functional
# H9c2 = test: cells; assay type: functional, cell-based; conditions: Rattus norvegicus, H9c2, Myocardium;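 further: confirmatory concentration-response retest of ultra-high-throughput screening hits for modulation of myocardial damage; cell death induced by hydrogen peroxide oxidative stress; compound pretreatment for 60 min then peroxide exposure for 2 h; potency is for protecting the cells against peroxide damage rather than for killing them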
# Fatty acid synthase [3] = molecular target: T1, Fatty acid synthase (Homo sapiens, UniProt P49327); test: inhibition of human FAS-TE enzyme activity – biochemical, endpoint fluorescence intensity, uHTS hits, dose response (AID 624327); assay type: functional;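 further: fluorescence from hydrolysis of an O-methyl fluorescein acyl ester substrate by the enzyme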
# T1 sequence (P49327 whole entry): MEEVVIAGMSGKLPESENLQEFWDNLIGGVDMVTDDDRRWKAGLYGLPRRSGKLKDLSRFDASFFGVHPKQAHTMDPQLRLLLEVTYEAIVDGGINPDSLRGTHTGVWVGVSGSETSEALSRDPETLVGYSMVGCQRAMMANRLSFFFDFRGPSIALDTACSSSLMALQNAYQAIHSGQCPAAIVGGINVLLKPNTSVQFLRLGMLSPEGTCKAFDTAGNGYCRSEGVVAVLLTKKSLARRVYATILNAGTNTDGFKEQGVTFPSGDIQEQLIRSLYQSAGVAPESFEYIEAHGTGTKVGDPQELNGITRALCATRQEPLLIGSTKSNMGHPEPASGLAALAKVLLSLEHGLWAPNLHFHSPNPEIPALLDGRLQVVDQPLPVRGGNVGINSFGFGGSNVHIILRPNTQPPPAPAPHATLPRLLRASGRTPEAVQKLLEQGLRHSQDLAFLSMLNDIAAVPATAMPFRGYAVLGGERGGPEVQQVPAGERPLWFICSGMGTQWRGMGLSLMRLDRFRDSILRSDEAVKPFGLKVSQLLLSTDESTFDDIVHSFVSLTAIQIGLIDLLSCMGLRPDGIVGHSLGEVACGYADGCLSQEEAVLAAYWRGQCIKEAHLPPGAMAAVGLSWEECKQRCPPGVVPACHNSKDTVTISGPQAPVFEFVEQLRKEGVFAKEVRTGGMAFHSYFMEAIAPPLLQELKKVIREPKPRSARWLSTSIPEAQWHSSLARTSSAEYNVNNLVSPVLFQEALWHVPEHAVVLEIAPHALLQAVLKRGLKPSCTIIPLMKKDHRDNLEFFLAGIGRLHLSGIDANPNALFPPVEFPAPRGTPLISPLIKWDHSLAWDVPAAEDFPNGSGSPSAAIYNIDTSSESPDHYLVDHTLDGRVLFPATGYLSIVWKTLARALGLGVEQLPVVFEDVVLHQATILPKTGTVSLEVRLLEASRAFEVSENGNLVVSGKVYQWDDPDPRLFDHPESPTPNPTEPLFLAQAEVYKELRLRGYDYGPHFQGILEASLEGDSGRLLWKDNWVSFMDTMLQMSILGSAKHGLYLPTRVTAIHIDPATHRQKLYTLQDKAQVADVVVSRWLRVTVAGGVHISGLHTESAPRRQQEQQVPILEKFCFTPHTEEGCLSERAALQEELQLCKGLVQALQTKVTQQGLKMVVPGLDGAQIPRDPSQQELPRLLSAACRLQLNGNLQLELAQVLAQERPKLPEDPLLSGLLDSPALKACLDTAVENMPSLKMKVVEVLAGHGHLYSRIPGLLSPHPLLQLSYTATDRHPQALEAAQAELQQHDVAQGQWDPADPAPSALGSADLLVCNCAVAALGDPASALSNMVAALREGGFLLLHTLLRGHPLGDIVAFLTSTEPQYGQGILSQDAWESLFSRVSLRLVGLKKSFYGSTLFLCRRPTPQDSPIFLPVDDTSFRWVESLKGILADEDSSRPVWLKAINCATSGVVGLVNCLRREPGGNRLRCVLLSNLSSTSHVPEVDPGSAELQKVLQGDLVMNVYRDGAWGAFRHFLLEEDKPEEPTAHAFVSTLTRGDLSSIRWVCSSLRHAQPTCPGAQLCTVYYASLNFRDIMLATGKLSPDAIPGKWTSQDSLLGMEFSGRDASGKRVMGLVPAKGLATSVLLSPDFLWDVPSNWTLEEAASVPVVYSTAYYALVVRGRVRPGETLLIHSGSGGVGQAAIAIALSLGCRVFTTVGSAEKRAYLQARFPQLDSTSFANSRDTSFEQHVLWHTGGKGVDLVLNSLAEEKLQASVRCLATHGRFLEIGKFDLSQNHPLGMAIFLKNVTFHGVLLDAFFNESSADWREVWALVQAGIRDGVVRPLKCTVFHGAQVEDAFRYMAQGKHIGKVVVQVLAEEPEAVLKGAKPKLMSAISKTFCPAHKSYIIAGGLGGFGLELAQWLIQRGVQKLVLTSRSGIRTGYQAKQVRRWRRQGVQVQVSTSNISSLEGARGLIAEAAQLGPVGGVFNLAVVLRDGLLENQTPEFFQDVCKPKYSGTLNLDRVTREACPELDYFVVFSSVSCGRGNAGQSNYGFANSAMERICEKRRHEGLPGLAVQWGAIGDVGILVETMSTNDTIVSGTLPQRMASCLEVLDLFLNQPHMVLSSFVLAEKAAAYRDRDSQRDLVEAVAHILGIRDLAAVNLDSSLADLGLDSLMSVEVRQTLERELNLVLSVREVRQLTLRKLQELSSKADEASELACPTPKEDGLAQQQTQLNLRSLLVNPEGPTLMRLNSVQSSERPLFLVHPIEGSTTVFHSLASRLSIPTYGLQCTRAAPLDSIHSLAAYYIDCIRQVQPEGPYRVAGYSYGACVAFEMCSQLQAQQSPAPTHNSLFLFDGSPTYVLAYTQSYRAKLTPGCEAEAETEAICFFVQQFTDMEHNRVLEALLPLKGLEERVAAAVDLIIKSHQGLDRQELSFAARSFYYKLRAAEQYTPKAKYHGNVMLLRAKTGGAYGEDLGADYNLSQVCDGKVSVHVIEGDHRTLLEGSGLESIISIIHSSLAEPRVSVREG
# Streptococcus = test: GAS UMAA2166 growth inhibition – luminescence, BacTiterGlo, counter-screen for streptokinase expression inhibitor project, dose response (AID 1915); assay type: functional, organism-based;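 further: potency for reduction of bacterial viability or growth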
# Fatty acid synthase [4] = molecular target: T1, Fatty acid synthase; test: inhibition of human FAS-TE enzyme activity – biochemical, kinetic fluorescence intensity, dose response (AID 624326); assay type: functional;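 further: rate of fluorescence rise from hydrolysis of a fluorogenic O-methyl fluorescein ester substrate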
# Streptokinase A = molecular target: T2, Streptokinase A (Streptococcus pyogenes serotype M1, UniProt P10520); test: viability-normalized secreted streptokinase activity reduction – plasminogen activation absorbance, OD405, dose response (AID 1914); assay type: functional, Streptococcus pyogenes M1 GAS;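 further: secreted streptokinase activity via plasminogen activation per viability signal from cell pellet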
# T2 sequence (P10520 whole entry): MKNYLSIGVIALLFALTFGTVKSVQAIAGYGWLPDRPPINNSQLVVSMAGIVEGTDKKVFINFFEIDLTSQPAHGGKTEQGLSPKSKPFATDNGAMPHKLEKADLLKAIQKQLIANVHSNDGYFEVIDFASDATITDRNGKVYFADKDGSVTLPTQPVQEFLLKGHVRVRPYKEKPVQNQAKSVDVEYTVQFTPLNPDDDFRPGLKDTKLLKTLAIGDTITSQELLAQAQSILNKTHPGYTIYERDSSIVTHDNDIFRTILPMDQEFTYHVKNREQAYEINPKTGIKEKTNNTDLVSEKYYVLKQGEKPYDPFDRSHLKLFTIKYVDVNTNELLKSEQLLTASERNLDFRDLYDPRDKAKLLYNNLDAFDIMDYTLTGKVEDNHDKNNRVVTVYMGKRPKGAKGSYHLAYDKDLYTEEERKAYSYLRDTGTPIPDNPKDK
# [5] = tested on: Streptococcus sp. 'group A'; test: Streptococcus pyogenes SK(-)GAS viability under kanamycin – luminescence, BacTiterGlo, confirmation, counter-screen for streptokinase expression inhibitor project, dose response (AID 1900); assay type: functional, organism-based
# [6] = molecular target: T3, Polyadenylate-binding protein 1 (Homo sapiens, UniProt P11940); test: MLLE domain peptide-binding blockers, IC50 – biochemical, fluorescence polarization, FITC-PAM2 peptide, dose response (AID 602259); assay type: functional; conditions: read-out: IC50_Mean
# T3 sequence (P11940 whole entry, the tested form may be a part): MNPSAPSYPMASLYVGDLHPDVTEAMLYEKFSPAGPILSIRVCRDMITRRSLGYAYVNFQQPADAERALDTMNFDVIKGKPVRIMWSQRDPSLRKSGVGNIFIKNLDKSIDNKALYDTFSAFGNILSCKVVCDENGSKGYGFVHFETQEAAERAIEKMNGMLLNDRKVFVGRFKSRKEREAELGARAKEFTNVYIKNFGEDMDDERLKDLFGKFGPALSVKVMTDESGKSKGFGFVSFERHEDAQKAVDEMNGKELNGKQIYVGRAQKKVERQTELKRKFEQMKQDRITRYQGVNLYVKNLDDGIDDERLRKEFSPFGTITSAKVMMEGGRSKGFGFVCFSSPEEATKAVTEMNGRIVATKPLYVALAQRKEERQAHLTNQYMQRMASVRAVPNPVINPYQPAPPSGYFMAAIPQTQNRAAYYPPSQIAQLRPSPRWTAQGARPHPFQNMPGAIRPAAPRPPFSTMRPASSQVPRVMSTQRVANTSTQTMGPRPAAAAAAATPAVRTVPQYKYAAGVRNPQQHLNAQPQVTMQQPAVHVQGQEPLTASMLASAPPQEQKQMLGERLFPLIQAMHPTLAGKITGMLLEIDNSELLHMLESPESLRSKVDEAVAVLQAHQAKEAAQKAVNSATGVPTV
# [7] = molecular target: T3, Polyadenylate-binding protein 1; test: MLLE binding blockers, Cy5 peptide tracer – biochemical, fluorescence polarization, Cy5-PAM2 peptide, secondary, miRNA deadenylation inhibitor project, dose response (AID 602260); assay type: functional; conditions: read-out: IC50_Mean
# [8] = molecular target: T4, Microphthalmia-associated transcription factor (Homo sapiens, UniProt O75030); test: reducers of TRPM1 reporter luminescence, concentration series – cell-based, SK-MEL-5, cherry-picked, set 3, MITF inhibitor project, dose response (AID 493073); assay type: functional;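 further: SK-MEL-5 melanoma cells with luciferase driven by the MITF target TRPM1 promoter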
# T4 sequence (O75030 whole entry): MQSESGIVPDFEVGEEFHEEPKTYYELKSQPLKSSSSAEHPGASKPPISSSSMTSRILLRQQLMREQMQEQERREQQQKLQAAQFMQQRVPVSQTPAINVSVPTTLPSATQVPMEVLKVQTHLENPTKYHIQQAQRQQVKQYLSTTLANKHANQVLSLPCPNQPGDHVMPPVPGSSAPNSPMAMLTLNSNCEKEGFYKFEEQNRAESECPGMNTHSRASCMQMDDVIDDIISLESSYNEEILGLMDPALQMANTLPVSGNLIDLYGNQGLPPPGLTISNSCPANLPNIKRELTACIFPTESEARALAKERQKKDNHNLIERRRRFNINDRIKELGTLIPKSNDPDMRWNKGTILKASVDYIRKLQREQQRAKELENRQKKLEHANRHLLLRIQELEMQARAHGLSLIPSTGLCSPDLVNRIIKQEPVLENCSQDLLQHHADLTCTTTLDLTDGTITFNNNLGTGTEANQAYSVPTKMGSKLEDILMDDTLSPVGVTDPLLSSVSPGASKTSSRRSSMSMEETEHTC
# Protein skinhead-1 = molecular target: T5, Protein skinhead-1 (Caenorhabditis elegans, UniProt P34707); assay type: functional
# T5 sequence (P34707 whole entry): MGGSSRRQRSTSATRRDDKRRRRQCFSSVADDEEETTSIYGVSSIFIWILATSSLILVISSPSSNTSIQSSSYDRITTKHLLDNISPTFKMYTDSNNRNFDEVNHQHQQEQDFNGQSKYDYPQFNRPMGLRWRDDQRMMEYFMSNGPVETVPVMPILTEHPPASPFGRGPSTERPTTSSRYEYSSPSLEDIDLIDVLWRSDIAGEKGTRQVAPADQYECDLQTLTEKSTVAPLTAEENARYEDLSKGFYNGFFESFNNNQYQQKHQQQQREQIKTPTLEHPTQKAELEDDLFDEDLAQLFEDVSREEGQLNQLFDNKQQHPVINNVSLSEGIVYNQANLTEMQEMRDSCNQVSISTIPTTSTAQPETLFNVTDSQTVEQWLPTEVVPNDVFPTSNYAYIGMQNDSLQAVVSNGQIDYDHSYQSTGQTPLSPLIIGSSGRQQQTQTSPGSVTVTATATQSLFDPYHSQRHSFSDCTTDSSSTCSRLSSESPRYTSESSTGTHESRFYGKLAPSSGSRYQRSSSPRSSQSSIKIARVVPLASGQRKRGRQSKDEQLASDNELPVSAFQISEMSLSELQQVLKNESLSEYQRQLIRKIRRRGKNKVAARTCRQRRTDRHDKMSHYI
# [9] = Luminescence Cell-Based Dose Confirmation HTS to Identify Inhibitors of Platelet Dense Granule Release. [Related pubchem assays: 1663 (Primary HTS), 1678 (Summary of Project)]; assay type: functional
# [10] = molecular target: Luciferin 4-monooxygenase (Photinus pyralis, UniProt P08659); test: inhibition of purified Photinus pyralis luciferase – biochemical, luminescence, dose response (AID 1891)
# Sequence of Luciferin 4-monooxygenase (P08659 whole entry): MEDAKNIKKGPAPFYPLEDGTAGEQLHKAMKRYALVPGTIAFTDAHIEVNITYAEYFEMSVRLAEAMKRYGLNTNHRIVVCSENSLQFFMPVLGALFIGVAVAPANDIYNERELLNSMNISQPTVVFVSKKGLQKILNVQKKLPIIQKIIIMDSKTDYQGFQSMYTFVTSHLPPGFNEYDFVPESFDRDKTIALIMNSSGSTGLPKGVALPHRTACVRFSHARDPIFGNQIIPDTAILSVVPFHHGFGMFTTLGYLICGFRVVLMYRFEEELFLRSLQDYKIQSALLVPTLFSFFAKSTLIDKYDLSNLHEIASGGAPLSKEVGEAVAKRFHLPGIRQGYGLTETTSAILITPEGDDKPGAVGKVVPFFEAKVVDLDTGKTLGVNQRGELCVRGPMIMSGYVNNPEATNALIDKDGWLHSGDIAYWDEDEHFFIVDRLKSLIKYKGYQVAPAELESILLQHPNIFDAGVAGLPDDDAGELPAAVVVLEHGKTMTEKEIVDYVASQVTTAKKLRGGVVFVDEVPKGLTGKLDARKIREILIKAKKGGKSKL
# [11] = molecular target: T6, Corticotropin-releasing factor receptor 2/Corticotropin-releasing factor-binding protein (Homo sapiens, UniProt P24387+Q13324); test: activators of CRF receptor 2 with binding protein – uHTS hits, confirmation (AID 602473); assay type: functional; conditions: read-out: EC50_Mean
# T6 sequence (Q13324 whole entry): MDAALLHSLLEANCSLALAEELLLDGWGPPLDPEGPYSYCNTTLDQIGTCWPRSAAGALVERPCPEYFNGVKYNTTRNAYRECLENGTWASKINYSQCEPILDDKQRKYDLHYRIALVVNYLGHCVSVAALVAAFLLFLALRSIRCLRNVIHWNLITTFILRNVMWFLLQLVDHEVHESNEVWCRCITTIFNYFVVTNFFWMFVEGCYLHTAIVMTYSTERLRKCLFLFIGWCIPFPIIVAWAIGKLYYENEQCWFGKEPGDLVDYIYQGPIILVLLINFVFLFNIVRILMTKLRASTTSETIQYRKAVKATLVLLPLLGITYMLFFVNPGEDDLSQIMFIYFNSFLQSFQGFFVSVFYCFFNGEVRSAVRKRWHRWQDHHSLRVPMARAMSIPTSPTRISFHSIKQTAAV
# T6 sequence (P24387 whole entry): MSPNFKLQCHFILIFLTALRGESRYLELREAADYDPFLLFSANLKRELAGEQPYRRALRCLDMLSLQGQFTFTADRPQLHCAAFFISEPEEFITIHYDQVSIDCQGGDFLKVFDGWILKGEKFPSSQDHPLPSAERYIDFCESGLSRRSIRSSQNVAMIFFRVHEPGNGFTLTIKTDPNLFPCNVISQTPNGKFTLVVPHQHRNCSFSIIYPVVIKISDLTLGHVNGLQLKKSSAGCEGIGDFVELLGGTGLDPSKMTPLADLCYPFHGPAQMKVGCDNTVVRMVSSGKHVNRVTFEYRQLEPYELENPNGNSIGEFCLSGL
smiles,measurement,setting,value
CCC(=O)Oc1cccc(C(=O)Nc2ccc(-c3nnc(-c4ccco4)o3)cc2)c1,EC50,H4,6.33 µM (active)
same,EC50,[1],> 120 µM (not active)
same,EC50,[2],3.89 µM (active)
same,IC50,H9c2,22.7 µM (active)
O=[N+]([O-])c1ccc(NCc2ccc(Cl)cc2)c2ccncc12,IC50,Fatty acid synthase [3],3.17 µM (active)
same,EC50,Streptococcus,> 150 µM (not active)
same,IC50,Fatty acid synthase [4],3.75 µM (active)
same,EC50,Streptokinase A,15.1 µM (active)
same,EC50,[5],32.3 µM (active)
COc1cc2ncc(S(=O)(=O)c3ccccc3)c(N3CCC4(CC3)OCCO4)c2cc1OC,IC50,Fatty acid synthase [3],2.55 µM (active)
same,IC50,Fatty acid synthase [4],1.59 µM (active)
CC(NC(=O)COC(=O)c1cc([N+](=O)[O-])ccc1N1CCOCC1)c1ccccc1 (stereo unspecified),IC50,Fatty acid synthase [3],4.64 µM (active)
same,IC50,Fatty acid synthase [4],2.93 µM (active)
CN(C)S(=O)(=O)c1cccc(NC(=O)c2cc([N+](=O)[O-])ccc2N2CCCCC2)c1,IC50,Fatty acid synthase [3],13.1 µM (active)
same,IC50,Fatty acid synthase [4],12.2 µM (active)
Cc1cc(C)c(C(=O)CC(=O)c2ccccc2Cl)c(O)c1,EC50,Streptococcus,23.5 µM (active)
same,IC50,H9c2,11.7 µM (active)
same,EC50,Streptokinase A,> 150 µM (not active)
same,EC50,[5],7.46 µM (active)
COc1ccc(N2C(=O)NC3CC2(C)Oc2ccc(Br)cc23)cc1OC (stereo unspecified),IC50,Fatty acid synthase [3],4.93 µM (active)
same,IC50,Fatty acid synthase [4],5.33 µM (active)
O=C(CN1C(=O)S/C(=C/c2ccncc2)C1=O)N1CCOCC1,IC50,[6],> 66 µM (inactive)
same,IC50,[7],> 66 µM (inactive)
COc1ccccc1N1C(=O)N(C(C)=O)C2C1Nc1ccccc1N2C (stereo unspecified),AC50,[8],10.5 µM (active)
O=C(NCCc1cccc(Cl)c1)c1ccc(Cl)c([N+](=O)[O-])c1,IC50,Fatty acid synthase [3],9.28 µM (active)
same,IC50,Fatty acid synthase [4],9.95 µM (active)
Cc1onc(-c2c(F)cccc2Cl)c1C(=O)NC(=S)NC1CCS(=O)(=O)C1 (stereo unspecified),IC50,[6],> 66 µM (inactive)
same,IC50,[7],> 66 µM (inactive)
O=C(Nc1ccc(CN2CCOCC2)cc1)c1ccc(-c2cccc([N+](=O)[O-])c2)o1,IC50,H9c2,> 79 µM (inactive)
Cc1sc2nc(COC(=O)Cc3ccccc3)nc(O)c2c1C,IC50,H9c2,23.4 µM (active)
COc1ccc(C2(CNC(=O)c3cccc([N+](=O)[O-])c3)CCCCC2)cc1OC,IC50,Fatty acid synthase [3],14.9 µM (active)
same,IC50,Fatty acid synthase [4],10.2 µM (active)
COc1cc2c(cc1OC)C(SC)=NC1(CCCC1)C2,AC50,[8],9.44 µM (active)
COc1ccc(C(=O)NCc2ccc3c(c2)cc(C)n3C)cc1,IC50,Protein skinhead-1,> 100 µM (inactive)
same,IC50,[6],> 66 µM (inactive)
same,EC50,[9],> 112 µM (not active)
same,IC50,[7],> 66 µM (inactive)
same,EC50,[10],> 112 µM (not active)
COC(=O)CSc1[nH]c2ccccc2c1[N+](=O)[O-],IC50,[6],> 66 µM (inactive)
same,IC50,[7],> 66 µM (inactive)
COc1ccccc1NS(=O)(=O)c1cc(NC(=O)CCc2nc(O)c3ccccc3n2)ccc1C,IC50,H9c2,> 79 µM (inactive)
COc1nccnc1NS(=O)(=O)c1ccc(NC(=S)NC(=O)/C=C/c2ccccc2)cc1,IC50,[6],> 66 µM (inactive)
same,IC50,[7],> 66 µM (inactive)
COc1ccccc1CN(C(=O)CNC(=O)c1ccco1)C(C(=O)NCC1CCCO1)c1ccccc1 (stereo unspecified),IC50,H9c2,> 79 µM (inactive)
c1cc2c3c(cccc3c1)NC1(CCCC1)N2,IC50,[6],> 66 µM (inactive)
same,IC50,[7],> 66 µM (inactive)
Nc1ccc(-c2cc3ccccc3c(=O)o2)cc1,AC50,[8],0.293 µM (active)
CCOC(=O)C1=C(NC(=O)c2oc3ccccc3c2COC)Nc2ccccc2N=C1C,IC50,H9c2,> 79 µM (inactive)
CCCCN1CC(COCc2ccccc2)Oc2cccc(OCCN3C(=O)[C@@H]4[C@H](C3=O)C3C=C[C@H]4C3)c2S1(=O)=O (stereo partly specified),EC50,[11],5.15 µM (active)
same,IC50,H9c2,> 79 µM (inactive)
O=C(N/N=C/c1ccccn1)c1cc(-c2ccc(Cl)s2)n[nH]1,IC50,H9c2,> 79 µM (inactive)
CSc1nsc(NN)n1,IC50,[6],> 66 µM (inactive)
same,IC50,[7],> 66 µM (inactive)
COc1cc(C(=O)N/N=C/c2ccc(OC(=O)c3ccccc3Cl)cc2)ccc1O,IC50,H9c2,> 79 µM (inactive)
Cc1cc(Cl)ccc1NC(=O)CCC(=O)N/N=C/c1cc([N+](=O)[O-])ccc1O,IC50,Fatty acid synthase [3],12.8 µM (active)
same,IC50,Fatty acid synthase [4],8.57 µM (active)
